The source of these data is PubChem BioAssay AID330 (DTP/NCI, 2004).

Several values for one entry are separate records, joined by “and”; a condition that tells them apart may be missing. Identical values can stand only once. Toxic doses and inconclusive results are not listed.

In the assay the test system is P388 leukemia ip, CD2F1 mice, survival T/C. Put plainly: NCI In Vivo Anticancer Drug Screen. Data for tumor model P388 Leukemia (intraperitoneal) in CD2F1 (CDF1) mice. Particulars: endpoint: median survival time, higher = longer survival. In outline:
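Mice carrying the transplanted tumor received test compound or vehicle. Survival was recorded in each group, and the value is the treated-group measurement divided by that of the vehicle-treated control group.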

[1] abbreviates: dose: 60.0 mg/kg/injection, schedule: Q01DX005 (ip), vehicle: saline.
The mark [2] stands for this setting: dose: 120.0 mg/kg/injection, schedule: Q01DX005 (ip), vehicle: saline.
[3] abbreviates: dose: 240.0 mg/kg/injection, schedule: Q01DX005 (ip), vehicle: saline.
[4] abbreviates: dose: 50.0 mg/kg/injection, schedule: Q01DX005 (ip), vehicle: saline.
Where [5] appears, read: dose: 100.0 mg/kg/injection, schedule: Q01DX005 (ip), vehicle: saline.
The mark [6] stands for this setting: dose: 200.0 mg/kg/injection, schedule: Q01DX005 (ip), vehicle: saline.
Where [7] appears, read: dose: 50.0 mg/kg/injection, schedule: Q01DX009 (ip), vehicle: saline.
Setting [8] is: dose: 100.0 mg/kg/injection, schedule: Q01DX009 (ip), vehicle: saline.
Setting [9] is: dose: 200.0 mg/kg/injection, schedule: Q01DX009 (ip), vehicle: saline.
The mark [10] stands for this setting: dose: 1.25 mg/kg/injection, schedule: Q01DX009 (ip), vehicle: saline.
Setting [11] is: dose: 2.5 mg/kg/injection, schedule: Q01DX009 (ip), vehicle: saline.
The mark [12] stands for this setting: dose: 200.0 mg/kg/injection, schedule: Q01DX009 (ip), vehicle: saline with Tween-80.
[13] abbreviates: dose: 5.0 mg/kg/injection, schedule: Q01DX009 (ip), vehicle: saline.
The mark [14] stands for this setting: dose: 100.0 mg/kg/injection, schedule: Q01DX005 (ip), vehicle: saline with Tween-80.
The mark [15] stands for this setting: dose: 200.0 mg/kg/injection, schedule: Q01DX005 (ip), vehicle: saline with Tween-80.

On to `CC1=C(C)[CH2][Ge]([CH3])([CH3])[CH2]1`, for which the T/C reads like this: under setting [1], 98 % of control; under setting [2], 104 % of control; under setting [3], 97 % of control.

In the case of `CC(C)(C)C(N)=S=O`, the T/C is, setting by setting: under setting [4], 101 % of control; under setting [5], 106 % of control; under setting [6], 106 % of control.

`CCC[CH2][Sn]([CH3])([CH3])[CH2]CCN(C)C`: the T/C runs as follows: under setting [7], 98 % of control; under setting [8], 98 % of control; under setting [9], 88 % of control.

`CN(Cc1cnc2nc(N[Si](C)(C)C)nc(N[Si](C)(C)C)c2n1)c1ccc(C(=O)NC(CCC(=O)O[Si](C)(C)C)C(=O)O[Si](C)(C)C)cc1` (stereo not drawn): the T/C (dose: 0.63 mg/kg/injection, schedule: Q01DX009 (ip), vehicle: saline) is 165 % of control; the T/C under setting [10] was 191 % of control; the T/C (dose: 1.9 mg/kg/injection, schedule: Q04DX003 (ip), vehicle: saline) was 159 % of control; the T/C under setting [11] is 226 % of control; the T/C (dose: 3.8 mg/kg/injection, schedule: Q04DX003 (ip), vehicle: saline) was 177 % of control; the T/C (dose: 7.5 mg/kg/injection, schedule: Q04DX003 (ip), vehicle: saline) was 195 % of control. For the same compound, the T/C is, setting by setting: (dose: 15.0 mg/kg/injection, schedule: Q04DX003 (ip), vehicle: saline) 218 % of control; (dose: 30.0 mg/kg/injection, schedule: Q04DX003 (ip), vehicle: saline) 236 % of control; (dose: 60.0 mg/kg/injection, schedule: Q04DX003 (ip), vehicle: saline) 109 % of control.

On to `CCCCCCCCCCCCCCC(O)C(=O)O` (stereo not drawn), for which, under setting [12], the T/C was 89 % of control.

`COC(=O)C1C2CCCN2OC1(C)CO` (stereo not drawn): the T/C is 100 % of control (dose: 7.5 mg/kg/injection, schedule: Q01DX005 (ip), vehicle: saline); 106 % of control (dose: 15.0 mg/kg/injection, schedule: Q01DX005 (ip), vehicle: saline); 203 % of control under setting [1]; 96 % of control under setting [2]; 99 % of control under setting [3].

For the compound `C[PH+](C)C.C[PH+](C)C.[Au]`, the T/C runs as follows: under setting [10], 112 % of control; under setting [11], 114 % of control; under setting [13], 116 % of control.

Regarding `Cc1ccc(-c2c3c(c(-c4ccc(C)cc4)c(-c4ccccc4)c2-c2ccccc2)-c2ccccc2C3)cc1`, the T/C reads like this: (dose: 12.5 mg/kg/injection, schedule: Q01DX009 (ip), vehicle: saline with Tween-80) 98 % of control; (dose: 25.0 mg/kg/injection, schedule: Q01DX009 (ip), vehicle: saline with Tween-80) 98 % of control; (dose: 50.0 mg/kg/injection, schedule: Q01DX009 (ip), vehicle: saline with Tween-80) 99 % of control and 89 % of control.

As to `CCCCCCCCCCCCn1c2nc(=O)[nH]c(=O)c-2nc2ccccc21`, the T/C is 97 % of control (dose: 3.12 mg/kg/injection, schedule: Q01DX005 (ip), vehicle: saline with Tween-80); 97 % of control (dose: 6.25 mg/kg/injection, schedule: Q01DX005 (ip), vehicle: saline with Tween-80); 90 % of control (dose: 12.5 mg/kg/injection, schedule: Q01DX005 (ip), vehicle: saline with Tween-80); 87 % of control under setting [14]; 91 % of control under setting [15].

As to `O=[N+]([O-])c1ccc(/C=C/Oc2ccccc2)o1`, the T/C was 111 % of control (dose: 50.0 mg/kg/injection, schedule: Q01DX009 (ip), vehicle: suspension in saline); 110 % of control (dose: 100.0 mg/kg/injection, schedule: Q01DX009 (ip), vehicle: suspension in saline); 111 % of control (dose: 200.0 mg/kg/injection, schedule: Q01DX009 (ip), vehicle: suspension in saline).

Turning to `CCc1c(C)c(SC)n(C)c(=O)c1C#N`, the T/C reads like this: (dose: 25.0 mg/kg/injection, schedule: Q01DX009 (ip), vehicle: Klucel (hydroxypropylcellulose) (HPC)) 99 % of control; (dose: 50.0 mg/kg/injection, schedule: Q01DX009 (ip), vehicle: Klucel (hydroxypropylcellulose) (HPC)) 100 % of control; (dose: 100.0 mg/kg/injection, schedule: Q01DX009 (ip), vehicle: Klucel (hydroxypropylcellulose) (HPC)) 97 % of control; (dose: 200.0 mg/kg/injection, schedule: Q01DX009 (ip), vehicle: Klucel (hydroxypropylcellulose) (HPC)) 91 % of control.

Regarding `O=C(Oc1ccccc1)c1cc2ccccc2cc1O`, the T/C was 100 % of control (dose: 6.25 mg/kg/injection, schedule: Q01DX009 (ip), vehicle: saline); 103 % of control (dose: 12.5 mg/kg/injection, schedule: Q01DX009 (ip), vehicle: saline); 100 % of control (dose: 25.0 mg/kg/injection, schedule: Q01DX009 (ip), vehicle: saline).

As for `Cc1cc(=S)c2cc3c(cc2[nH]1)OCO3`, the T/C is, setting by setting: (dose: 50.0 mg/kg/injection, schedule: Q01DX005 (ip), vehicle: Klucel (hydroxypropylcellulose) (HPC)) 107 % of control; (dose: 100.0 mg/kg/injection, schedule: Q01DX005 (ip), vehicle: Klucel (hydroxypropylcellulose) (HPC)) 101 % of control; (dose: 200.0 mg/kg/injection, schedule: Q01DX005 (ip), vehicle: Klucel (hydroxypropylcellulose) (HPC)) 103 % of control.

Take `Cc1csc([NH-])n1.Cc1csc([NH-])n1.[Cl][Pt+2][Cl]`: the T/C by setting is: (dose: 100.0 mg/kg/injection, schedule: Q01DX001 (sc), vehicle: olive oil, sesame oil, peanut oil) 104 % of control; (dose: 200.0 mg/kg/injection, schedule: Q01DX001 (sc), vehicle: olive oil, sesame oil, peanut oil) 107 % of control; (dose: 400.0 mg/kg/injection, schedule: Q01DX001 (sc), vehicle: olive oil, sesame oil, peanut oil) 104 % of control.

Take `O=C1CN(CCN2CCOCC2)CC(=O)N2CCCCN12`: the T/C runs as follows: under setting [4], 99 % of control; under setting [5], 102 % of control; under setting [6], 107 % of control.

As for `O=C(CCCCC(=O)N/N=C\c1ccccn1)N/N=C\c1ccccn1`, the T/C runs as follows: (dose: 100.0 mg/kg/injection, schedule: Q01DX009 (ip), vehicle: saline with Tween-80) 109 % of control; under setting [12], 100 % of control; (dose: 400.0 mg/kg/injection, schedule: Q01DX009 (ip), vehicle: saline with Tween-80) 109 % of control.

On to `CCN1C(=O)CC(NC2CC(OC3C[C@](O)(C(C)=O)Cc4c(O)c5c(c(O)c43)C(=O)c3c(OC)cccc3C5=O)OC(C)C2O)C1=O` (stereo partly drawn), for which the T/C reads like this: (dose: 6.25 mg/kg/injection, schedule: Q04DX003 (ip), vehicle: water) 115 % of control; (dose: 12.5 mg/kg/injection, schedule: Q04DX003 (ip), vehicle: water) 103 % of control; (dose: 25.0 mg/kg/injection, schedule: Q04DX003 (ip), vehicle: water) 105 % of control; (dose: 50.0 mg/kg/injection, schedule: Q04DX003 (ip), vehicle: water) 105 % of control.

Turning to `CCOC(=O)CS(=O)(=O)CCCCCCS(=O)(=O)CC(=O)OCC`, the T/C was 103 % of control under setting [7], 91 % of control under setting [8] and 94 % of control under setting [9].

Take `O=C1C(Cl)=C(Nc2cccc3cc4ccccc4nc23)C(=O)c2ccccc21`: the T/C by setting is: under setting [13], 104 % of control and 112 % of control; (dose: 10.0 mg/kg/injection, schedule: Q01DX009 (ip), vehicle: saline) 113 % of control and 114 % of control; (dose: 20.0 mg/kg/injection, schedule: Q01DX009 (ip), vehicle: saline) 104 % of control.

For the compound `Cc1[nH]c2ccccc2c1-c1cc(-c2cc(-c3c(C)[nH]c4ccccc34)on2)no1`, the T/C by setting is: (dose: 60.0 mg/kg/injection, schedule: Q01DX005 (ip), vehicle: Klucel + Tween-80) 97 % of control; (dose: 120.0 mg/kg/injection, schedule: Q01DX005 (ip), vehicle: Klucel + Tween-80) 100 % of control; (dose: 240.0 mg/kg/injection, schedule: Q01DX005 (ip), vehicle: Klucel + Tween-80) 103 % of control.

With `CCCCCCCCCCN(CCCCCCCCCC)C(=O)C(C)OC(C)=O` (stereo not drawn), the T/C runs as follows: (dose: 50.0 mg/kg/injection, schedule: Q01DX005 (ip), vehicle: saline with Tween-80) 98 % of control; under setting [14], 101 % of control; under setting [15], 104 % of control.
